Laboratory results from article PMC3154276, “The Effect of the Potential PhoQ Histidine Kinase Inhibitors on Shigella flexneri Virulence” (PLoS ONE, 2011).

Experiments:
[1] = test system: S. flexneri Sf9380; experiment: Gentamicin protection assay, HeLa cell invasion by Sf9380; format: cell-based
Experimental: The growth curve of Sf9380 treated with or without potential PhoQ inhibitors at concentration 200 µmol/L were tested. […] The gentamicin protection assay was used as a cellular model to evaluate the inhibitory effect of the four potential PhoQ inhibitors. The bacteria were treated with each of the four potential PhoQ inhibitors in a serial dilution and grown for 8 hours. Next, the bacteria were inoculated and incubated with HeLa cells for 60 min prior to the addition of gentamicin to kill extracellular bacteria. For testing intracellular growth and spreading to adjacent cell, cells were further incubated for 290 min [9]. The results of the assays were expressed as the number of bacteria recovered from gentamicin-treated cells divided by the number of inoculated bacteria added to the cell. After lysates of HeLa cells were plated, the number of CFU that formed on LB agar were counted.
Figure 6 The effects of potential PhoQ inhibitors on virulence of Shigella. […] The bacteria pre-treated with potential PhoQ inhibitor were added to HeLa cells at a multiplicity of infection of 100. Then gentamicin was added to kill extracellular bacteria and cell lysates were plated onto LB plates, and the colonies were counted. The results of the assays were expressed as the number of bacteria recovered from gentamicin-treated cells divided by the number of inoculated bacteria added to the cell. S. flexneri Sf9380 (treated without DMSO), a clinical strain with strong virulence, served as the positive control for the cell invasion assay; E. coli ATCC 25922 (treated without DMSO), an avirulent strain, served as the negative control for the cell invasion assay; bacteria treated with 0.1% DMSO (the solvent of the potential PhoQ inhibitor) also served as a control for the cell invasion assay. Values are means ± standard deviations from 6 independent wells. *p<0.01 vs. Sf9380. (A) The effects of potential PhoQ inhibitors on cell invasion of S. flexneri Sf9380 (B) The effects of potential PhoQ inhibitors on intracellular growth S. flexneri Sf9380. (C) The effects of potential PhoQ inhibitors on cell invasion of S. flexneri 2a 301 phoQ/phoP knock-out mutant.
Bacterial ability to invade HeLa cells was tested with a gentamicin protection assay. HeLa cells were grown in six-well tissue culture plates to semi-confluent monolayers (DMEM, 10% FCS, 5% CO2). Sf9380 or Sf301 ΔphoQ/phoP was treated with potential PhoQ inhibitors for 8 hours in LB at 37°C (final concentrations of 100,50,25,12.5 or 6.25 µmol/L) prior to infection. The bacteria pre-treated with potential PhoQ inhibitor without washing, were added to semi-confluent HeLa cells at a multiplicity of infection of 100, at the same time the bacteria were diluted and plated onto LB agar plates. The CFUs were counted as initial bacterial number before added into HeLa cells. Then the plates were centrifuged at 900×g for 5 minutes. After incubating at 37°C for 60 minutes (For testing intracellular growth and spreading to adjacent cell, cells were further incubated for 290 min [9].), the cells were washed three times with PBS, and gentamicin was added to the medium to a final concentration of 10 µg/ml for 20 minutes at 37°C. After the incubation, the HeLa cells in each well were lysed in 1 ml of PBS containing 0.1% Triton X-100 for 10 minutes at room temperature. The lysates were diluted and plated onto LB agar plates in triplicate. Colonies grown on LB plates were counted. The results of the assays were expressed as the number of bacteria recovered from gentamicin-treated cells divided by the number of inoculated bacteria added to the cell. The cells were inoculated with untreated Sf9380 or Sf301 ΔphoQ/phoP (treated without DMSO) as a positive control and E. coli ATCC 25922, an avirulent strain treated without DMSO, as a negative control. […]

[2] = test system: S. flexneri Sf9380; experiment: Mouse Sereny test (keratoconjunctivitis); on degree of keratoconjunctival inflammation: key: −: no disease; ±: little keratoconjunctivitis; +: mild keratoconjunctivitis; ++: keratoconjunctivitis with some purulence; +++: fully developed keratoconjunctivitis with great purulence; format: in vivo, BALB/c mice; conditions: for degree of keratoconjunctival inflammation: Sf9380 pre-treated at the concentration (I 1 12.5, I 2 25, I 3 and I 4 100 µmol/L); for eye finding at 24 hours after infection / time by which keratoconjunctivitis was resolved: 1×10^8 CFUs per eye; for keratoconjunctival inflammation (words, abstract): mice inoculated with pre-treated S. flexneri 9380
Text: A Mouse Sereny test was used to investigate the inhibitory effect of the four potential PhoQ inhibitors on the virulence of S. flexneri Sf9380. The mice were infected with 1×10^8 CFUs per eye.
A Mouse Sereny test was used to evaluate the virulence of S. flexneri Sf9380 [48]. A single red colony of Sf9380 on Congo Red agar (Tryptic soy broth provided by Oxfoid Co. with 1.5% agar and 0.01% Congo red), was inoculated into LB and grown with or without potential PhoQ inhibitors (final concentration 100,50,25,12.5 or 6.25 µmol/L) at 37°C for 8 hours with constant shaking. The female BALB/c mice (about 18 g) were infected with 1×10^8 CFUs per eye. The eye of the mouse was inoculated with the bacterium with or without potential PhoQ inhibitor treatment (n = 6 mice in each group). […] In the experiment, mouse eyes inoculated with untreated Sf9380 (treated without DMSO) served as the positive control for keratoconjunctivitis, and mouse eyes inoculated with E. coli ATCC 25922 (treated without DMSO) served as the negative control. Because DMSO is the solvent of the potential PhoQ inhibitor, Sf9380 was treated with the same amount of DMSO (0.1%) as the other groups. The invasiveness of the bacteria was scored: no disease or mild irritation as “−”, + as mild conjunctivitis or late development and/or rapid clearing of symptoms, ++ as keratoconjunctivitis without purulence, and +++ as fully developed keratoconjunctivitis with purulence.

[3] = Sf9380 pre-treated with 12.5 µmol/L
[4] = Sf9380 pre-treated with 25 µmol/L

**Q.** `O=C(Nc1ccc(C2(c3cccc(NC(=O)c4cccc5ccccc45)c3)c3ccccc3C(=O)c3ccccc32)cc1)c1ccc2ccccc2c1` [Compound 1] was tested. Which “times lower invasion than untreated Sf9380” value ([1]; 12.5 µmo/L, HeLa cells) did it give?
**A.** 4.3 times

**Q.** What about the “invasion of HeLa cells by Sf9380 (bacteria recovered / inoculated)” value ([1]; 12.5 µmo/L, bacteria pre-treated 8 hours, untreated Sf9380 5.87×10^−2) of the same compound?
**A.** 1.36×10^−2

**Q.** And the “effect on invasion of HeLa cells by Sf9380” value ([1]; concentrations lower than 12.5 µmo/L)?
**A.** no obvious effects

**Q.** And the “degree of keratoconjunctival inflammation” value (“degree” for short) ([2]; 24 h, mouse 1)?
**A.** +

**Q.** What about the “degree” value ([2]; 24 h, mouse 2) of the same compound?
**A.** +

**Q.** And the “degree” value ([2]; 24 h, mouse 3)?
**A.** +

**Q.** What about the “degree” value ([2]; 24 h, mouse 4) of the same compound?
**A.** −

**Q.** And the “degree” value ([2]; 24 h, mouse 5)?
**A.** +

**Q.** And the “degree” value ([2]; 24 h, mouse 6)?
**A.** +

**Q.** And the “degree” value ([2]; 48 h, mouse 1)?
**A.** −

**Q.** What about the “degree” value ([2]; 48 h, mouse 2) of the same compound?
**A.** −

**Q.** What about the “degree” value ([2]; 48 h, mouse 3) of the same compound?
**A.** +

**Q.** And the “degree” value ([2]; 48 h, mouse 4)?
**A.** −

**Q.** And the “degree” value ([2]; 48 h, mouse 5)?
**A.** −

**Q.** What about the “degree” value ([2]; 48 h, mouse 6) of the same compound?
**A.** −

**Q.** What about the “degree” value ([2]; 72 h, mouse 1) of the same compound?
**A.** −

**Q.** What about the “degree” value ([2]; 72 h, mouse 2) of the same compound?
**A.** −

**Q.** What about the “degree” value ([2]; 72 h, mouse 3) of the same compound?
**A.** −

**Q.** What about the “degree” value ([2]; 72 h, mouse 4) of the same compound?
**A.** −

**Q.** What about the “degree” value ([2]; 72 h, mouse 5) of the same compound?
**A.** −

**Q.** And the “degree” value ([2]; 72 h, mouse 6)?
**A.** −

**Q.** What about the “degree” value ([2]; 96 h, mouse 1) of the same compound?
**A.** −

**Q.** And the “degree” value ([2]; 96 h, mouse 2)?
**A.** −

**Q.** What about the “degree” value ([2]; 96 h, mouse 3) of the same compound?
**A.** −

**Q.** And the “degree” value ([2]; 96 h, mouse 4)?
**A.** −

**Q.** And the “degree” value ([2]; 96 h, mouse 5)?
**A.** −

**Q.** What about the “degree” value ([2]; 96 h, mouse 6) of the same compound?
**A.** −

**Q.** What about the “eye finding at 24 hours after infection” value [2, 3] of the same compound?
**A.** slight conjunctival inflammation

**Q.** What about the “time by which keratoconjunctivitis was resolved” value [2, 3] of the same compound?
**A.** ≤ 48 h

**Q.** And the “keratoconjunctival inflammation (words, abstract)” value [2]?
**A.** no inflammation

**Q.** `CCOc1ccccc1-c1cc(C(=O)N/N=C/c2ccc(OCc3ccccc3)c(OC)c2)c2ccccc2n1` [Compound 2] was tested. Which “times lower invasion than the control” value ([1]; 25 µmo/L, HeLa cells) did it give?
**A.** 16.3 times

**Q.** What about the “effect on invasion of HeLa cells by Sf9380” value ([1]; concentrations lower than 25 µmo/L) of the same compound?
**A.** no obvious effects

**Q.** And the “degree” value ([2]; 24 h, mouse 1)?
**A.** +

**Q.** And the “degree” value ([2]; 24 h, mouse 2)?
**A.** +

**Q.** What about the “degree” value ([2]; 24 h, mouse 3) of the same compound?
**A.** +

**Q.** And the “degree” value ([2]; 24 h, mouse 4)?
**A.** +

**Q.** What about the “degree” value ([2]; 24 h, mouse 5) of the same compound?
**A.** +

**Q.** And the “degree” value ([2]; 24 h, mouse 6)?
**A.** +

**Q.** What about the “degree” value ([2]; 48 h, mouse 1) of the same compound?
**A.** −

**Q.** What about the “degree” value ([2]; 48 h, mouse 2) of the same compound?
**A.** +

**Q.** And the “degree” value ([2]; 48 h, mouse 3)?
**A.** −

**Q.** And the “degree” value ([2]; 48 h, mouse 4)?
**A.** −

**Q.** And the “degree” value ([2]; 48 h, mouse 5)?
**A.** −

**Q.** What about the “degree” value ([2]; 48 h, mouse 6) of the same compound?
**A.** −

**Q.** What about the “degree” value ([2]; 72 h, mouse 1) of the same compound?
**A.** −

**Q.** What about the “degree” value ([2]; 72 h, mouse 2) of the same compound?
**A.** −

**Q.** And the “degree” value ([2]; 72 h, mouse 3)?
**A.** −

**Q.** What about the “degree” value ([2]; 72 h, mouse 4) of the same compound?
**A.** −

**Q.** What about the “degree” value ([2]; 72 h, mouse 5) of the same compound?
**A.** −

**Q.** And the “degree” value ([2]; 72 h, mouse 6)?
**A.** −

**Q.** And the “degree” value ([2]; 96 h, mouse 1)?
**A.** −

**Q.** What about the “degree” value ([2]; 96 h, mouse 2) of the same compound?
**A.** −

**Q.** And the “degree” value ([2]; 96 h, mouse 3)?
**A.** −

**Q.** And the “degree” value ([2]; 96 h, mouse 4)?
**A.** −

**Q.** And the “degree” value ([2]; 96 h, mouse 5)?
**A.** −

**Q.** And the “degree” value ([2]; 96 h, mouse 6)?
**A.** −

**Q.** And the “eye finding at 24 hours after infection” value [2, 4]?
**A.** slight conjunctival inflammation

**Q.** What about the “time by which keratoconjunctivitis was resolved” value [2, 4] of the same compound?
**A.** ≤ 48 h

**Q.** And the “keratoconjunctival inflammation (words, abstract)” value [2]?
**A.** no inflammation
